Measurements taken from patent publication US6448261B1, “Arylamino fused pyridines” (Bristol-Myers Squibb Pharma Company, priority 1996, dated 2002).

| SMILES | melting point |
| --- | --- |
| CCC(COC)n1nnc2c(Nc3ccc(C(C)C)cc3Br)nc(C)nc21 (racemic) [Example 9, (+/−)-N-[2-bromo-4-(1-methylethyl)phenyl]-3-[1-(1-methoxymethyl)propyl]-5-methyl-3H-1,2,3-triazolo[4,5-d]pyrimidin-7-amine] | 115 to 116 °C |
| CCCCC(CC)n1nnc2c(Nc3ccc(C(C)C)cc3Br)nc(C)nc21 (racemic) [Example 13, (+/−)-N-[2-bromo-4-(1-methylethyl)phenyl]-3-[1-ethylpentyl]-5-methyl-3H-1,2,3-triazolo[4,5-d]pyrimidin-7-amine] | 137 to 138 °C |
| CCC(COC)n1nnc2c(Nc3ccc(C(C)=O)cc3Br)nc(C)nc21 (racemic) [Example 27, (+/−)-N-(4-acetyl-2-bromophenyl)-3-[1-(1-methoxymethyl)propyl]-5-methyl-3H-1,2,3-triazolo[4,5-d]pyrimidin-7-amine] | 133 to 134 °C |
| CCC(COC)n1nnc2c(Nc3c(C)cc(C)cc3C)nc(C)nc21 (racemic) [Example 32, (+/−)-3-[1-(1-methoxymethyl)propyl]-5-methyl-N-(2,4,6-trimethylphenyl)-3H-1,2,3-triazolo[4,5-d]pyrimidin-7-amine] | 144.5 to 147 °C |
| CCCCC(CC)n1nnc2c(Nc3c(C)cc(C)cc3C)nc(C)nc21 (racemic) [Example 36, (+/−)-3-[1-(1-ethyl)pentyl]-5-methyl-N-(2,4,6-trimethylphenyl)-3H-1,2,3-triazolo[4,5-d]pyrimidine-7-amine] | 129 to 130.5 °C |
| CCC(COC)n1nnc2c(Nc3ccc(Br)cc3C)nc(C)nc21 (racemic) [Example 42, (+/−)-N-(4-bromo-2-methylphenyl)-3-[1-(1-methoxymethyl)propyl]-5-methyl-3H-1,2,3-triazolo[4,5-d]pyrimidin-7-amine] | 144.5 to 146 °C |
| CCCn1nnc2c(Nc3ccc(C(C)C)cc3Br)nc(C)nc21 [Example 1, N-[2-bromo-4-(1-methylethyl)phenyl]-5-methyl-3-propyl-3H-1,2,3-triazolo[4,5-d]pyrimidin-7-amine] | 80 to 81 °C |
| COCCn1nnc2c(Nc3ccc(C(C)C)cc3Br)nc(C)nc21 [Example 6, N-[2-bromo-4-(1-methylethyl)phenyl]-3-(2-methoxyethyl)-5-methyl-3H-1,2,3-triazolo[4,5-d]pyrimidin-7-amine] | 94 to 95 °C |
| COC[C@H](Cc1ccccc1)n1nnc2c(Nc3ccc(C(C)C)cc3Br)nc(C)nc21 [Example 11, (S)-N-[2-bromo-4-(1-methylethyl)phenyl]-3-[1-(1-methoxymethyl)-2-phenylethyl]-5-methyl-3H-1,2,3-triazolo[4,5-d]pyrimidin-7-amine] | 67 to 69 °C |
| CCC(CC)n1nnc2c(Nc3ccc(C(C)C)cc3Br)nc(C)nc21 [Example 19, N-[2-bromo-4-(1-methylethyl)phenyl]-3-[1-ethylpropyl]-5-methyl-3H-1,2,3-triazolo[4,5-d]pyrimidin-7-amine] | 171 to 172 °C |
| CCC(CC)n1nnc2c(Nc3ccc(C(C)=O)cc3Br)nc(C)nc21 [Example 26, N-(4-acetyl-2-bromophenyl)-3-[1-ethylpropyl]-5-methyl-3H-1,2,3-triazolo[4,5-d]pyrimidin-7-amine] | 153 to 154 °C |
| CCC(CC)n1nnc2c(Nc3c(C)cc(C)cc3C)nc(C)nc21 [Example 34, 3-[1-(1-ethyl)propyl]-5-methyl-N-(2,4,6-trimethylphenyl)-3H-1,2,3-triazolo[4,5-d]pyrimidin-7-amine] | 160 to 162 °C |
| COCCn1nnc2c(Nc3c(C)cc(C)cc3C)nc(C)nc21 [Example 38, 3-(2-methoxyethyl)-5-methyl-N-(2,4,6-trimethylphenyl)-3H-1,2,3-triazolo[4,5-d]pyrimidin-7-amine] | 171.5 to 173.5 °C |

The next lines start with the values.

| melting point | SMILES |
| --- | --- |
| 154 to 155 °C | CCCC(CC)n1nnc2c(Nc3ccc(C(C)C)cc3Br)nc(C)nc21 (racemic) [Example 17, (+/−)-N-[2-bromo-4-(1-methylethyl)phenyl]-3-[1-ethylbutyl]-5-methyl-3H-1,2,3-triazolo[4,5-d]pyrimidin-7-amine] |
| 154 to 155 °C | CCC(COC)n1nnc2c(Nc3c(Br)cc(OC)cc3OC)nc(C)nc21 (racemic) [Example 30, (+/−)-N-(2-bromo-4,6-dimethoxyphenyl)-3-[1-(1-methoxymethyl)propyl]-5-methyl-3H-1,2,3-triazolo[4,5-d]pyrimidin-7-amine] |
| 149 to 150 °C | CCC(COC)n1nnc2c(Nc3c(Cl)cc(OC)cc3OC)nc(C)nc21 (racemic) [Example 31, (+/−)-N-(2-chloro-4,6-dimethoxyphenyl)-3-[1-(1-methoxymethyl)propyl]-5-methyl-3H-1,2,3-triazolo[4,5-d]pyrimidin-7-amine] |
| 170.5 to 172 °C | CCCC(CC)n1nnc2c(Nc3c(C)cc(C)cc3C)nc(C)nc21 (racemic) [Example 35, (+/−)-3-[1-(1-ethyl)butyl]-5-methyl-N-(2,4,6-trimethylphenyl)-3H-1,2,3-triazolo[4,5-d]pyrimidin-7-amine] |
| 73 to 74 °C | CCCCC(CC)n1nnc2c(Nc3ccc(C(C)C)cc3Br)nc(C)cc21 (racemic) [Example 226, (+/−)-N-[2-bromo-4-(1-methylethyl)phenyl]-1-(1-ethylpentyl)-6-methyl-1H-1,2,3-triazolo[4,5-c]pyridin-4-amine] |
| 127 to 128 °C | CCCCC(CC)n1nnc2c(Nc3c(Br)cc(OC)cc3OC)nc(C)cc21 (racemic) [Example 227, (+/−)-N-(2-bromo-4,6-dimethoxyphenyl)-1-(1-ethylpentyl)-6-methyl-1H-1,2,3-triazolo[4,5-c]pyridin-4-amine] |
| 155 to 156 °C | CCCCC(CC)n1nnc2c(Nc3c(Cl)cc(OC)cc3OC)nc(C)cc21 (racemic) [Example 228, (+/−)-N-(2-chloro-4,6-dimethoxyphenyl)-1-(1-ethylpentyl)-6-methyl-1H-1,2,3-triazolo[4,5-c]pyridin-4-amine] |
| 69 to 70 °C | CCCC(CCC)n1nnc2c(Nc3ccc(C(C)C)cc3Br)nc(C)nc21 [Example 15, N-[2-bromo-4-(1-methylethyl)phenyl]-3-[1-propylbutyl]-5-methyl-3H-1,2,3-triazolo[4,5-d]pyrimidin-7-amine] |
| 132 to 133 °C | CCCCC(CCCC)n1nnc2c(Nc3ccc(C(C)C)cc3Br)nc(C)nc21 [Example 16, N-[2-bromo-4-(1-methylethyl)phenyl]-3-[1-butylpentyl]-5-methyl-3H-1,2,3-triazolo[4,5-d]pyrimidin-7-amine] |
| 141 to 142 °C | CCCC(CCC)n1nnc2c(Nc3c(C)cc(C)cc3Br)nc(C)nc21 [Example 21, N-(2-bromo-4,6-dimethylphenyl)-5-methyl-3-[1-propylbutyl]-3H-1,2,3-triazolo[4,5-d]pyrimidin-7-amine] |
| 143 to 144.5 °C | CCCC(CCC)n1nnc2c(Nc3c(C)cc(C)cc3C)nc(C)nc21 [Example 37, 5-methyl-3-[1-(1-propyl)butyl]-N-(2,4,6-trimethylphenyl)-3H-1,2,3-triazolo[4,5-d]pyrimidin-7-amine] |
| 126.5 to 128 °C | CCCC(CCC)n1nnc2c(Nc3ccc(Br)cc3C)nc(C)nc21 [Example 40, N-(2-Methyl-4-bromophenyl)-3-[1-(1-propyl)butyl]-5-methyl-3H-1,2,3-triazolo[4,5-d]pyrimidin-7-amine] |
| 144 to 145 °C | CCC(CC)n1nnc2c(Nc3ccc(C(C)C)cc3Br)nc(C)cc21 [Example 221, N-[2-bromo-4-(1-methylethyl)phenyl]-1-(1-ethylpropyl)-6-methyl-1H-1,2,3-triazolo[4,5-c]pyridin-4-amine] |
| 166 to 167 °C | CCC(CC)n1nnc2c(Nc3c(Br)cc(OC)cc3OC)nc(C)cc21 [Example 222, N-(2-bromo-4,6-dimethoxyphenyl)-1-(1-ethylpropyl)-6-methyl-1H-1,2,3-triazolo[4,5-c]pyridin-4-amine] |
| 140 to 141 °C | CCCC(CCC)n1nnc2c(Nc3c(Br)cc(OC)cc3OC)nc(C)cc21 [Example 224, N-(2-bromo-4,6-dimethoxyphenyl)-6-methyl-1-(1-propylbutyl)-1H-1,2,3-triazolo[4,5-c]pyridin-4-amine] |
| 157 to 158 °C | CCCC(CCC)n1nnc2c(Nc3c(Cl)cc(OC)cc3OC)nc(C)cc21 [Example 225, N-(2-chloro-4,6-dimethoxyphenyl)-6-methyl-1-(1-propylbutyl)-1H-1,2,3-triazolo[4,5-c]pyridin-4-amine] |
